Source: patent publication US6096930A, “Herbicidal cyclohexane-1,3-dione derivatives and their preparation process” (Korea Research Institute of Chemical Technology, priority 1994, dated 2000)

Legend:
Assay in all cases: Herbicidal activity, upland test, pre-emergence
Assay type in all cases: in vivo
[1] = test system: BROJA
Summary of the method: (§1)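 Visual percent control, scored from 0 (no herbicidal effect) to 100 (complete kill), was recorded after 21 days in the greenhouse. Compounds had been sprayed onto sterilized sandy loam soil one day after seeding, in acetone/water containing up to 0.1% Tween 20, generally at 4.0 kg/ha and submultiples.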

[2] = test system: ORYSA
Summary of the method: as §1

[3] = test system: TRZAW
Summary of the method: as §1

[4] = test system: GOSHI
Summary of the method: as §1

[5] = test system: SORBI
Summary of the method: as §1

[6] = test system: DIGSA
Summary of the method: as §1

[7] = test system: AESIN
Summary of the method: as §1

[8] = test system: SOLNI
Summary of the method: as §1

Row | SMILES | Herbicidal activity, BROJA ([1]; 0.016 kg/ha) | Herbicidal activity, BROJA ([1]; 0.063 kg/ha) | Herbicidal activity, BROJA ([1]; 1.000 kg/ha) | Herbicidal activity, BROJA ([1]; 1.250 kg/ha) | Herbicidal activity, ORYSA ([2]; 0.016 kg/ha) | Herbicidal activity, ORYSA ([2]; 0.063 kg/ha) | Herbicidal activity, ORYSA ([2]; 1.000 kg/ha) | Herbicidal activity, ORYSA ([2]; 1.250 kg/ha) | Herbicidal activity, TRZAW ([3]; 0.016 kg/ha) | Herbicidal activity, TRZAW ([3]; 0.063 kg/ha) | Herbicidal activity, TRZAW ([3]; 1.000 kg/ha) | Herbicidal activity, TRZAW ([3]; 1.250 kg/ha) | Herbicidal activity, GOSHI ([4]; 0.016 kg/ha) | Herbicidal activity, GOSHI ([4]; 0.063 kg/ha) | Herbicidal activity, GOSHI ([4]; 1.000 kg/ha) | Herbicidal activity, GOSHI ([4]; 1.250 kg/ha) | Herbicidal activity, SORBI ([5]; 0.016 kg/ha) | Herbicidal activity, SORBI ([5]; 0.063 kg/ha) | Herbicidal activity, SORBI ([5]; 1.000 kg/ha) | Herbicidal activity, SORBI ([5]; 1.250 kg/ha) | also measured
1 | CCC(=NOC)C1=C(O)CC(c2c(C)c(C)c3c(c2C)CC(C)(C)C3)CC1=O (stereo not drawn) [Compound 1] | 0 % inhibition | 0 % inhibition | 100 % inhibition | 40 % inhibition | 0 % inhibition | 30 % inhibition | 100 % inhibition | 100 % inhibition | 0 % inhibition | 0 % inhibition | 60 % inhibition | 20 % inhibition | 0 % inhibition | 0 % inhibition | 0 % inhibition | 0 % inhibition | 0 % inhibition | 0 % inhibition | 60 % inhibition | 20 % inhibition | Herbicidal activity, DIGSA ([6]; 0.016 kg/ha): 0 % inhibition; Herbicidal activity, DIGSA ([6]; 0.063 kg/ha): 30 % inhibition; Herbicidal activity, DIGSA ([6]; 1.000 kg/ha): 100 % inhibition; Herbicidal activity, DIGSA ([6]; 1.250 kg/ha): 70 % inhibition; Herbicidal activity, AESIN ([7]; 0.016 kg/ha): 0 % inhibition; Herbicidal activity, AESIN ([7]; 0.063 kg/ha): 0 % inhibition; Herbicidal activity, AESIN ([7]; 1.000 kg/ha): 0 % inhibition; Herbicidal activity, AESIN ([7]; 1.250 kg/ha): 0 % inhibition; Herbicidal activity, SOLNI ([8]; 0.016 kg/ha): 0 % inhibition; Herbicidal activity, SOLNI ([8]; 0.063 kg/ha): 0 % inhibition; Herbicidal activity, SOLNI ([8]; 1.000 kg/ha): 0 % inhibition; Herbicidal activity, SOLNI ([8]; 1.250 kg/ha): 0 % inhibition
2 | CCON=C(CC)C1=C(O)CC(c2c(C)c(C)c3c(c2C)CC(C)(C)C3)CC1=O (stereo not drawn) [Compound 2] | 0 % inhibition | 20 % inhibition | 100 % inhibition | 60 % inhibition | 0 % inhibition | 0 % inhibition | 100 % inhibition | 60 % inhibition | 0 % inhibition | 0 % inhibition | 80 % inhibition | 20 % inhibition | 0 % inhibition | 0 % inhibition | 0 % inhibition | 0 % inhibition | 0 % inhibition | 0 % inhibition | 100 % inhibition | 30 % inhibition | Herbicidal activity, DIGSA ([6]; 0.016 kg/ha): 0 % inhibition; Herbicidal activity, DIGSA ([6]; 0.063 kg/ha): 60 % inhibition; Herbicidal activity, DIGSA ([6]; 1.000 kg/ha): 100 % inhibition; Herbicidal activity, DIGSA ([6]; 1.250 kg/ha): 100 % inhibition; Herbicidal activity, AESIN ([7]; 0.016 kg/ha): 0 % inhibition; Herbicidal activity, AESIN ([7]; 0.063 kg/ha): 0 % inhibition; Herbicidal activity, AESIN ([7]; 1.000 kg/ha): 0 % inhibition; Herbicidal activity, AESIN ([7]; 1.250 kg/ha): 0 % inhibition; Herbicidal activity, SOLNI ([8]; 0.016 kg/ha): 0 % inhibition; Herbicidal activity, SOLNI ([8]; 0.063 kg/ha): 0 % inhibition; Herbicidal activity, SOLNI ([8]; 1.000 kg/ha): 0 % inhibition; Herbicidal activity, SOLNI ([8]; 1.250 kg/ha): 0 % inhibition
3 | CCCC(=NOC)C1=C(O)CC(c2c(C)c(C)c3c(c2C)CC(C)(C)C3)CC1=O (stereo not drawn) [Compound 6] | 0 % inhibition | 0 % inhibition | 80 % inhibition | 40 % inhibition | 0 % inhibition | 30 % inhibition | 80 % inhibition | 30 % inhibition | 0 % inhibition | 0 % inhibition | 60 % inhibition | 20 % inhibition | 0 % inhibition | 0 % inhibition | 0 % inhibition | 0 % inhibition | 0 % inhibition | 0 % inhibition | 30 % inhibition | 0 % inhibition | Herbicidal activity, DIGSA ([6]; 0.016 kg/ha): 0 % inhibition; Herbicidal activity, DIGSA ([6]; 0.063 kg/ha): 0 % inhibition; Herbicidal activity, DIGSA ([6]; 1.000 kg/ha): 100 % inhibition; Herbicidal activity, DIGSA ([6]; 1.250 kg/ha): 60 % inhibition; Herbicidal activity, AESIN ([7]; 0.016 kg/ha): 0 % inhibition; Herbicidal activity, AESIN ([7]; 0.063 kg/ha): 0 % inhibition; Herbicidal activity, AESIN ([7]; 1.000 kg/ha): 0 % inhibition; Herbicidal activity, AESIN ([7]; 1.250 kg/ha): 0 % inhibition; Herbicidal activity, SOLNI ([8]; 0.016 kg/ha): 0 % inhibition; Herbicidal activity, SOLNI ([8]; 0.063 kg/ha): 0 % inhibition; Herbicidal activity, SOLNI ([8]; 1.000 kg/ha): 0 % inhibition; Herbicidal activity, SOLNI ([8]; 1.250 kg/ha): 0 % inhibition
